Measured values published in patent US11173151B2, “Substituted triazole derivatives and uses thereof” (BAYER AKTIENGESELLSCHAFT, priority 2017, dated 2021).

What was measured:
human V1a receptor = biological target: T1, human V1a receptor (Homo sapiens, UniProt P37288); assay: Cellular in vitro assay for determining vasopressin receptor activity, V1a receptor cell line (CHO, aequorin luminescence); assay type: cell-based; details: for IC50: CHO cell line transfected with human V1a receptor, [Arg]-vasopressin at EC50 concentration, read-out: IC50 hV1a; for ratio IC50 hV2/hV1a: selectivity ratio IC50 hV2 / IC50 hV1a
T1 construct: expressed in transfected cells; host or cells: CHO K1 (ATCC), also stably transfected with a modified aequorin
In short: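 CHO K1/aequorin cells, coelenterazine 5 μg/ml o/n; cpd 10 min; [Arg]-vasopressin at EC50; luminescence read immediately; IC50.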

human V2 receptor = biological target: T2, human V2 receptor (Homo sapiens, UniProt P30518); assay: Cellular in vitro assay for determining vasopressin receptor activity, V2 receptor cell line (CHO, CRE-luciferase); assay type: cell-based; details: CHO cell line transfected with human V2 receptor; [Arg8]-vasopressin at EC50 concentration; read-out: IC50 hV2
T2 construct: expressed in transfected cells; host or cells: CHO K1 (ATCC) expressing firefly luciferase under a CRE-responsive promoter
T2 sequence (P30518 whole entry): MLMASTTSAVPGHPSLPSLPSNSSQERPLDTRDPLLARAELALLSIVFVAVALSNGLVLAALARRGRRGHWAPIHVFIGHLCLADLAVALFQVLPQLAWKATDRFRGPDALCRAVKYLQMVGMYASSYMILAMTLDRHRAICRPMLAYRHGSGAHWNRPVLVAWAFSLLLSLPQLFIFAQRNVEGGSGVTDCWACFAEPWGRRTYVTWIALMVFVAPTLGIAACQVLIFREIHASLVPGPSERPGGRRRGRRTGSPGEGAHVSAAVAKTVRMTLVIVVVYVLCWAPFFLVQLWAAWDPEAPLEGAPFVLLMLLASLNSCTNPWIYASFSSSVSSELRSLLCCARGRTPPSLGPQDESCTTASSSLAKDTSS

T1 sequence (P37288 whole entry): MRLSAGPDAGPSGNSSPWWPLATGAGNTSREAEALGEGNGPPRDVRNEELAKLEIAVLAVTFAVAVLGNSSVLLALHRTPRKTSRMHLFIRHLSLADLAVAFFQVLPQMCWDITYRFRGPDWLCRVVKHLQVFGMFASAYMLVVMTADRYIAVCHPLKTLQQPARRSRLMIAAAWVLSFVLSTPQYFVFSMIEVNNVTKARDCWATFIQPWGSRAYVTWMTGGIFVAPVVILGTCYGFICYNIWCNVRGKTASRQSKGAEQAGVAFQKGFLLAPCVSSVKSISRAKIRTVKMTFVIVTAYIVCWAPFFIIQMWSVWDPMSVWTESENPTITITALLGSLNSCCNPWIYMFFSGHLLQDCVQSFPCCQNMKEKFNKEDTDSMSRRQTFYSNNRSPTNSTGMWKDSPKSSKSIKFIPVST

| SMILES | IC50 (human V1a receptor) | ratio IC50 hV2/hV1a (human V1a receptor) | IC50 (human V2 receptor) |
| --- | --- | --- | --- |
| CC1(NC(=O)c2ccncc2-n2cnc(Cn3nc(-c4ccc(Cl)cc4)n(C[C@H](O)C(F)(F)F)c3=O)n2)CC1 [Example 492, 3-[3-({3-(4-Chlorophenyl)-5-oxo-4-[(2S)-3,3,3-trifluoro-2-hydroxypropyl]-4,5-dihydro-1H-1,2,4-triazol-1-yl}methyl)-1H-1,2,4-triazol-1-yl]-N-(1-methylcyclopropyl)pyridine-4-carboxamide] | 1.8 nM | 244.4 | 440 nM |
| O=C(NCC(F)(F)F)c1cccnc1-n1cnc(Cn2nc(-c3ccc(Cl)cc3)n(C[C@H](O)C(F)(F)F)c2=O)n1 [Example 494, 2-[3-({3-(4-chlorophenyl)-5-oxo-4-[(2S)-3,3,3-trifluoro-2-hydroxypropyl]-4,5-dihydro-1H-1,2,4-triazol-1-yl}methyl)-1H-1,2,4-triazol-1-yl]-N-(2,2,2-trifluoroethyl)pyridine-3-carboxamide] | 24.5 nM | 5.3 | 130 nM |
| CNC(=O)c1cccnc1-n1cnc(Cn2nc(-c3ccc(Cl)cc3)n(C[C@H](O)C(F)(F)F)c2=O)n1 [Example 495, 2-[3-({3-(4-chlorophenyl)-5-oxo-4-[(2S)-3,3,3-trifluoro-2-hydroxypropyl]-4,5-dihydro-1H-1,2,4-triazol-1-yl}methyl)-1H-1,2,4-triazol-1-yl]-N-methylpyridine-3-carboxamide] | 20 nM | 26.0 | 520 nM |
| O=C(NC1CC1)c1cccnc1-n1cnc(Cn2nc(-c3ccc(Cl)cc3)n(C[C@H](O)C(F)(F)F)c2=O)n1 [Example 496, 2-[3-({3-(4-chlorophenyl)-5-oxo-4-[(2S)-3,3,3-trifluoro-2-hydroxypropyl]-4,5-dihydro-1H-1,2,4-triazol-1-yl}methyl)-1H-1,2,4-triazol-1-yl]-N-cyclopropylpyridine-3-carboxamide] | 7.2 nM | 23.6 | 170 nM |
| O=C(NCCC(F)(F)F)c1cccnc1-n1cnc(Cn2nc(-c3ccc(Cl)cc3)n(C[C@H](O)C(F)(F)F)c2=O)n1 [Example 497, 2-[3-({3-(4-chlorophenyl)-5-oxo-4-[(2S)-3,3,3-trifluoro-2-hydroxypropyl]-4,5-dihydro-1H-1,2,4-triazol-1-yl}methyl)-1H-1,2,4-triazol-1-yl]-N-(3,3,3-trifluoropropyl)pyridine-3-carboxamide] | 26.5 nM | 18.5 | 490 nM |
| O=C(NC1CC(F)(F)C1)c1cccnc1-n1cnc(Cn2nc(-c3ccc(Cl)cc3)n(C[C@H](O)C(F)(F)F)c2=O)n1 [Example 498, 2-[3-({3-(4-Chlorophenyl)-5-oxo-4-[(2S)-3,3,3-trifluoro-2-hydroxypropyl]-4,5-dihydro-1H-1,2,4-triazol-1-yl}methyl)-1H-1,2,4-triazol-1-yl]-N-(3,3-difluorocyclobutyl)pyridine-3-carboxamide] | 10.5 nM | 44.8 | 470 nM |
| O=C(NCC1CC1)c1cccnc1-n1cnc(Cn2nc(-c3ccc(Cl)cc3)n(C[C@H](O)C(F)(F)F)c2=O)n1 [Example 499, 2-[3-({3-(4-Chlorophenyl)-5-oxo-4-[(2S)-3,3,3-trifluoro-2-hydroxypropyl]-4,5-dihydro-1H-1,2,4-triazol-1-yl}methyl)-1H-1,2,4-triazol-1-yl]-N-(cyclopropylmethyl)pyridine-3-carboxamide] | 15 nM | 33.7 | 505 nM |
| O=C(NC1CC1(F)F)c1cccnc1-n1cnc(Cn2nc(-c3ccc(Cl)cc3)n(C[C@H](O)C(F)(F)F)c2=O)n1 (stereo partly drawn) [Example 500, 2-[3-({3-(4-Chlorophenyl)-5-oxo-4-[(2S)-3,3,3-trifluoro-2-hydroxypropyl]-4,5-dihydro-1H-1,2,4-triazol-1-yl}methyl)-1H-1,2,4-triazol-1-yl]-N-(2,2-difluorocyclopropyl)pyridine-3-carboxamide] | 6.8 nM | 44.9 | 305 nM |
| COC[C@H]1CCCN1C(=O)c1cccnc1-n1cnc(Cn2nc(-c3ccc(Cl)cc3)n(C[C@H](O)C(F)(F)F)c2=O)n1 [Example 501, 5-(4-Chlorophenyl)-2-{[1-(3-{[(2R)-2-(methoxymethyl)pyrrolidin-1-yl]carbonyl}pyridin-2-yl)-1H-1,2,4-triazol-3-yl]methyl}-4-[(2S)-3,3,3-trifluoro-2-hydroxypropyl]-2,4-dihydro-3H-1,2,4-triazol-3-one] | 30.5 nM | 17.4 | 530 nM |
| COC[C@@H]1CCCN1C(=O)c1cccnc1-n1cnc(Cn2nc(-c3ccc(Cl)cc3)n(C[C@H](O)C(F)(F)F)c2=O)n1 [Example 502, 5-(4-Chlorophenyl)-2-{[1-(3-{[(2S)-2-(methoxymethyl)pyrrolidin-1-yl]carbonyl}pyridin-2-yl)-1H-1,2,4-triazol-3-yl]methyl}-4-[(2S)-3,3,3-trifluoro-2-hydroxypropyl]-2,4-dihydro-3H-1,2,4-triazol-3-one] | 29.5 nM | 67.8 | 2000 nM |
| CC1(NC(=O)c2cccnc2-n2cnc(Cn3nc(-c4ccc(Cl)cc4)n(C[C@H](O)C(F)(F)F)c3=O)n2)CC1 [Example 505, 2-[3-({3-(4-Chlorophenyl)-5-oxo-4-[(2S)-3,3,3-trifluoro-2-hydroxypropyl]-4,5-dihydro-1H-1,2,4-triazol-1-yl}methyl)-1H-1,2,4-triazol-1-yl]-N-(1-methylcyclopropyl)pyridine-3-carboxamide] | 1.05 nM | 52.6 | 55 nM |
| N#CC1(NC(=O)c2cccnc2-n2cnc(Cn3nc(-c4ccc(Cl)cc4)n(C[C@H](O)C(F)(F)F)c3=O)n2)CC1 [Example 506, 2-[3-({3-(4-Chlorophenyl)-5-oxo-4-[(2S)-3,3,3-trifluoro-2-hydroxypropyl]-4,5-dihydro-1H-1,2,4-triazol-1-yl}methyl)-1H-1,2,4-triazol-1-yl]-N-(1-cyanocyclopropyl)pyridine-3-carboxamide] | 14 nM | 64.6 | 905 nM |
| O=C1CN(c2nc(Cn3nc(-c4ccc(Cl)cc4)n(C[C@H](O)C(F)(F)F)c3=O)nn2-c2cccnc2C(=O)NCC(F)(F)F)CCN1 [Example 509, 3-[3-({3-(4-Chlorophenyl)-5-oxo-4-[(2S)-3,3,3-trifluoro-2-hydroxypropyl]-4,5-dihydro-1H-1,2,4-triazol-1-yl}methyl)-5-(3-oxopiperazin-1-yl)-1H-1,2,4-triazol-1-yl]-N-(2,2,2-trifluoroethyl)pyridine-2-carboxamide] | 2650 nM | 12.1 | 32000 nM |
| O=C1CN(C(=O)c2nc(Cn3nc(-c4ccc(Cl)cc4)n(C[C@H](O)C(F)(F)F)c3=O)nn2-c2cnccc2C(=O)NCC(F)(F)F)CCN1 [Example 510, 3-{3-({3-(4-Chlorophenyl)-5-oxo-4-[(2S)-3,3,3-trifluoro-2-hydroxypropyl]-4,5-dihydro-1H-1,2,4-triazol-1-yl}methyl)-5-[(3-oxopiperazin-1-yl)carbonyl]-1H-1,2,4-triazol-1-yl}-N-(2,2,2-trifluoroethyl)pyridine-4-carboxamide] | 9950 nM | 0.9 | 8900 nM |
